# Measured values: patent publication US6140487A (Kabushiki Kaisha Hayashibara Seibutsu Kagaku Kenkyujo, priority 1996, dated 2000)
# Molecular target: T1, kojibiose phosphorylase (Thermoanaerobacter brockii, UniProt Q8L163)
# T1 sequence (Q8L163 1-775): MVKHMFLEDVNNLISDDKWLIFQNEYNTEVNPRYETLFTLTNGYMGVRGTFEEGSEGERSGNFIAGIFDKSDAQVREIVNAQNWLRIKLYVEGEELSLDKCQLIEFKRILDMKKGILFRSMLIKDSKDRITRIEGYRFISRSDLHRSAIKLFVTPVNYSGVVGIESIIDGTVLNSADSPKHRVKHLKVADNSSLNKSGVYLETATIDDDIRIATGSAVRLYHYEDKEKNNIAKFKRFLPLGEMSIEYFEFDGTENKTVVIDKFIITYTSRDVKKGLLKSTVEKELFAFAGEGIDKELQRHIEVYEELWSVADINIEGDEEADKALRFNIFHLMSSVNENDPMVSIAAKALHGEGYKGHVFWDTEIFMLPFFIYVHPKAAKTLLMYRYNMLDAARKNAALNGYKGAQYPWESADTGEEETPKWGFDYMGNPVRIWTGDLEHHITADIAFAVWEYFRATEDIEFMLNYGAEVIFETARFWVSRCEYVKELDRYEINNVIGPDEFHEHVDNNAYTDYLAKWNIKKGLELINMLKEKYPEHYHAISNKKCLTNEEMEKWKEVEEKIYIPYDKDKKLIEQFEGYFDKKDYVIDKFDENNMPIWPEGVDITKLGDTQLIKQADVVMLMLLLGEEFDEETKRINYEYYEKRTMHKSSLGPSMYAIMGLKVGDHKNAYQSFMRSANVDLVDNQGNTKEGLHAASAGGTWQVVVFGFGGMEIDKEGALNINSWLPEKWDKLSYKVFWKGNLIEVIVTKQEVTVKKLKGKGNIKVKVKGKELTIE
# Experiment: Substrate specificity for saccharide-hydrolyzing reaction by kojibiose phosphorylase (TLC)
# Details: summary of Table 1
# Description: The saccharide concentration of each reaction solution was 2 w/v %. Pre-reaction solutions and post-reaction mixtures were subjected to thin layer chromatography (hereinafter abbreviated as "TLC") using "[sequence] 60 (20×20 cm)", an aluminum plate for TLC commercialized by Merck & Co., Inc., Rahway, USA. Samples were developed once at ambient temperature on the plate using 1-butanol/pyridine/water (=7:3:1 by volume) as a developing solvent system, and the plate was sprayed with 20 v/v % sulfuric acid/methanol solution, and heated at 110° C. for about 10 min for coloration. Comparing spots of the solutions and mixtures detected on the plates, it was checked whether the enzyme acted on the saccharides.
row,"Action of kojibiose phosphorylase on the saccharide (substrate specificity, in words)",Compound
1,acted on it,OC[C@H]1O[C@H](O[C@H]2C(O)O[C@H](CO)[C@@H](O)[C@@H]2O)[C@H](O)[C@@H](O)[C@@H]1O (stereo partly drawn) [Kojibiose]

# Molecular target: T1, kojibiose phosphorylase
# Experiment: Specificity to acceptor in glucosyl-transferred saccharide-forming reaction by kojibiose phosphorylase (TLC)
# Format: biochemical, Thermoanaerobium brockii, ATCC 35047
# Set-up: made in house; host or cells: Thermoanaerobium brockii, ATCC 35047 (natural producer, not recombinant; cell lysate purified by column chromatography)
# Details: summary of Table 2
# Text: The concentrations of the acceptors and the saccharide donors were adjusted to one w/v %. Similarly as in Experiment 5, the pre-reaction solutions and the post reaction mixtures were subjected to TLC, followed by coloring the plates. […] By macroscopically observing the coloration degree of the newly detected spots, the yield of the transferred saccharides was relatively evaluated.
row,Transfer of glucosyl group from β-D-glucose-1-phosphoric acid to the acceptor (in words),Compound
1,effectively transferred glucosyl group,OC[C@H]1O[C@H](O[C@H]2C(O)O[C@H](CO)[C@@H](O)[C@@H]2O)[C@H](O)[C@@H](O)[C@@H]1O (stereo partly drawn) [Kojibiose]
2,effectively transferred glucosyl group,OCC1(O)OC[C@H](O)[C@@H](O)[C@@H]1O (stereo partly drawn) [L-Sorbose]
3,effectively transferred glucosyl group,OC[C@H]1O[C@H](O[C@H]2[C@H](O)[C@@H](O)[C@@H](O[C@H]3[C@H](O)[C@@H](O)[C@@H](O[C@H]4[C@H](O)[C@@H](O)[C@@H](O[C@H]5[C@H](O)[C@@H](O)C(O)O[C@@H]5CO)O[C@@H]4CO)O[C@@H]3CO)O[C@@H]2CO)[C@H](O)[C@@H](O)[C@@H]1O (stereo partly drawn) [Maltopentaose]
4,effectively transferred glucosyl group,OC[C@H]1O[C@H](O[C@H]2[C@H](O)[C@@H](O)[C@H](O)O[C@@H]2CO)[C@H](O)[C@@H](O)[C@@H]1O [Maltose]
5,effectively transferred glucosyl group,OC[C@H]1O[C@H](O[C@H]2[C@H](O)[C@@H](O)[C@@H](O[C@H]3[C@H](O)[C@@H](O)[C@@H](O[C@H]4[C@H](O)[C@@H](O)C(O)O[C@@H]4CO)O[C@@H]3CO)O[C@@H]2CO)[C@H](O)[C@@H](O)[C@@H]1O (stereo partly drawn) [Maltotetraose]
6,effectively transferred glucosyl group,OC[C@H]1O[C@H](O[C@H]2[C@H](O)[C@@H](O)[C@@H](O[C@H]3[C@H](O)[C@@H](O)C(O)O[C@@H]3CO)O[C@@H]2CO)[C@H](O)[C@@H](O)[C@@H]1O (stereo partly drawn) [Maltotriose]
7,effectively transferred glucosyl group,OC[C@H]1O[C@@](CO)(O[C@H]2O[C@H](CO)[C@@H](O)[C@H](O)[C@H]2O)[C@@H](O)[C@@H]1O [Sucrose]
8,effectively transferred glucosyl group,OC[C@H]1O[C@H](O[C@H]2O[C@H](CO)[C@@H](O)[C@H](O)[C@H]2O)[C@H](O)[C@@H](O)[C@@H]1O [Trehalose]

row,Compound,Transfer of glucosyl group from β-D-glucose-1-phosphoric acid to the acceptor (in words)
1,OC[C@H]1OC(O)[C@H](O)[C@@H](O)[C@@H]1O (stereo partly drawn) [D-Glucose],effectively transferred glucosyl group

# Same assay, conditions: used in place of β-D-glucose-1-phosphoric acid
row,Compound,Formation of glucosyl-transferred saccharide with the substance as saccharide donor
1,O=P(O)(O)O[C@H]1O[C@H](CO)[C@@H](O)[C@H](O)[C@H]1O [α-D-glucose-1-phosphoric acid],No glucosyl-transferred saccharide was formed

# Test system: 7week-old dd-strain mice
# Experiment: Acute toxicity test, oral administration
# Format: in vivo
# Details: powdery product rich in the saccharide, maximum dose 50 g/kg mouse by weight
# Description: Acute toxicity test of the powdery products rich in glucosylsorbose, kojitriose, kojibiosylglucoside, and kojibiosylfructoside in Experiments 8-12 were tested in 7week-old dd-strain mice by administering orally. As a result, no mouse died even when administered with their maximum doses, i.e., 50 g/kg mouse by weight.
row,Compound,Acute toxicity: death of mice
1,"O=C(CO)[C@@H](O)[C@H](O)[C@H](CO)O[C@H]1O[C@H](CO)[C@@H](O)[C@H](O)[C@H]1O [glucosylsorbose, α-D-glucosyl-(1→5)-L-sorbose]",no mouse died
2,"OC[C@H]1O[C@@](CO)(O[C@H]2O[C@H](CO)[C@@H](O)[C@H](O)[C@H]2O[C@H]2O[C@H](CO)[C@@H](O)[C@H](O)[C@H]2O)[C@@H](O)[C@@H]1O [kojibiosylfructoside, α-D-glucosyl-(1→2)-α-D-glucosyl-(1→2)-β-D-fructoside]",no mouse died
3,"OC[C@H]1O[C@H](O[C@H]2O[C@H](CO)[C@@H](O)[C@H](O)[C@H]2O[C@H]2O[C@H](CO)[C@@H](O)[C@H](O)[C@H]2O)[C@H](O)[C@@H](O)[C@@H]1O [kojibiosylglucoside, α-D-glucosyl-(1→2)-α-D-glucosyl-(1,1)-α-D-glucoside]",no mouse died
4,"OC[C@H]1O[C@H](O[C@H]2[C@@H](O[C@H]3C(O)O[C@H](CO)[C@@H](O)[C@@H]3O)O[C@H](CO)[C@@H](O)[C@@H]2O)[C@H](O)[C@@H](O)[C@@H]1O (stereo partly drawn) [kojitriose, α-D-glucosyl-(1→2)-α-D-glucosyl-(1→2)-D-glucose]",no mouse died
